# Measured values reported in ChEMBL document CHEMBL5512597, “Triazole hybrid compounds: A new frontier in malaria treatment” (Eur J Med Chem, 2023).
# Tests used:
# [1] = test system: Plasmodium falciparum; assay: Antimalarial activity against Plasmodium falciparum; type: functional, organism-based
# [2] = test system: Plasmodium falciparum; assay: Antimalarial activity against Plasmodium falciparum 3D7 at asexual erythrocytic stage assessed as parasite growth inhibition measured after 24 hrs by [3H]-hypoxanthine incorporation assay; type: functional, organism-based
# [3] = test system: Plasmodium falciparum; assay: Antimalarial activity against Plasmodium falciparum assessed as parasite growth inhibition incubated for 36 to 40 hrs by JSB staining based analysis; type: functional, organism-based
# [4] = test system: Plasmodium falciparum; assay: Antimalarial activity against CQ-resistant Plasmodium falciparum K1; type: functional, organism-based
# [5] = test system: Plasmodium falciparum; assay: Antimalarial activity against Plasmodium falciparum Dd2 infected in A+ human erythrocytes assessed as reduction in parasite growth incubated for 72 hrs by SYBR Green I staining based analysis; type: functional, organism-based; conditions: Dd2, Erythrocyte
# [6] = test system: Plasmodium falciparum; assay: Antimalarial activity against Plasmodium falciparum K1 infected in A+ human erythrocytes assessed as reduction in parasite growth incubated for 72 hrs by SYBR Green I staining based analysis; type: functional, organism-based; conditions: K1, Erythrocyte
# [7] = test system: Plasmodium falciparum; assay: Antimalarial activity against Plasmodium falciparum 3D7 infected in A+ human erythrocytes assessed as reduction in parasite growth incubated for 72 hrs by SYBR Green I staining based analysis; type: functional, organism-based; conditions: 3D7, Erythrocyte
# [8] = Cytotoxicity against human erythrocytes; type: toxicity, cell-based, Erythrocyte
# [9] = test system: Plasmodium falciparum; assay: Antimalarial activity against CQ-resistant Plasmodium falciparum Dd2; type: functional, organism-based
smiles,measurement,setting,value
CC1=C(C(=O)Nc2ccc(C)cc2)C(c2ccc(OCc3cn(Cc4ccccc4)nn3)cc2)n2c(nc3ccccc32)N1 (stereo not drawn),IC50,[1],1920 nM
Cc1cc(=O)oc2cc(OCc3cn(-c4ccc(S(N)(=O)=O)cc4)nn3)ccc12,IC50,[2],3640 nM
O=c1ccc2ccc(OCc3cn(-c4ccc(S(=O)(=O)N5CCOCC5)cc4)nn3)cc2o1,IC50,[2],> 85500 nM
O=c1ccc2ccc(OCc3cn(-c4ccc(OCc5ccc([N+](=O)[O-])cc5)cc4)nn3)cc2o1,IC50,[3],1.2 µg/mL
C=CCn1cc(COc2ccc([C@@H]3[C@H](Oc4ccccc4)C(=O)N3c3ccc(C)cc3)cc2)nn1,IC50,[4],8430 nM
C[C@H]1[C@H](OCc2cn(-c3ccnc4cc(Cl)ccc34)nn2)O[C@@H]2O[C@@]3(C)CC[C@H]4[C@H](C)CC[C@@H]1[C@@]24OO3,EC50,[5],10.6 nM
same,EC50,[6],5.9 nM
same,EC50,[7],27.5 nM
CC1=C(C(=O)Nc2cccc(Cl)c2)C(c2ccc(OCc3cn(Cc4ccccc4)nn3)cc2)n2c(nc3ccccc32)N1 (stereo not drawn),IC50,[1],3120 nM
CC1=C(C(=O)Nc2ccc(C(F)(F)F)cc2)C(c2ccc(OCc3cn(Cc4ccccc4)nn3)cc2)n2ncnc2N1 (stereo not drawn),IC50,[1],820 nM
Cc1nc(-c2ccccc2)c(-c2ccccc2)c2cc(-c3cn(CCOC(=O)CCC(=O)O[C@@H]4O[C@@H]5O[C@@]6(C)CC[C@H]7[C@H](C)CC[C@@H]([C@H]4C)[C@@]57OO6)nn3)ccc12,EC50,[5],4.8 nM
same,EC50,[6],3.3 nM
same,EC50,[7],5.3 nM
C[C@H]1[C@@H](OCc2cn(-c3ccnc4cc(Cl)ccc34)nn2)O[C@@H]2O[C@@]3(C)CC[C@H]4[C@H](C)CC[C@@H]1[C@@]24OO3,EC50,[7],9 nM
O=c1ccc2ccc(OCc3cn(-c4ccc(OCc5ccc(Br)cc5)cc4)nn3)cc2o1,IC50,[3],0.54 µg/mL
Cc1ccc(N2C(=O)[C@@H](Oc3ccccc3)[C@H]2c2ccc(OCc3cn(Cc4ccccc4)nn3)cc2)cc1,IC50,[4],15500 nM
O=[N+]([O-])c1ccccc1Cn1cc(CO)nn1,CC50,[8],75.5 µg/mL
same,IC50,[9],0.65 µg/mL
CC1=C(C(=O)Nc2ccc(Cl)cc2)C(c2ccc(OCc3cn(Cc4ccccc4)nn3)cc2)n2ncnc2N1 (stereo not drawn),IC50,[1],1680 nM
C[C@H]1[C@H](OC(=O)CCC(=O)O)O[C@@H]2O[C@@]3(C)CC[C@H]4[C@H](C)CC[C@@H]1[C@@]24OO3 [ARTESUNATE],CC50,[8],> 100 µg/mL
same,IC50,[9],0.002 µg/mL
same,EC50,[5],10.9 nM
same,EC50,[6],5.2 nM
same,EC50,[7],14.4 nM
Cc1nc(-c2ccccc2)c(-c2ccccc2)c2cc(-c3cn(CCOC(=O)CCC(=O)O[C@@H]4O[C@@H]5O[C@]6(C)O[C@]57[C@@H](CC[C@@H](C)[C@@H]7C[C@H]6O)[C@H]4C)nn3)ccc12,EC50,[5],444 nM
same,EC50,[6],256 nM
same,EC50,[7],646 nM
O=c1cc(OCc2cn(-c3ccc(OCc4cccc([N+](=O)[O-])c4)cc3)nn2)c2ccccc2o1,IC50,[3],0.6 µg/mL
NS(=O)(=O)c1ccc(-n2cc(COc3cc(=O)oc4ccccc34)nn2)cc1,IC50,[2],100000 nM
Cc1ccc(COc2ccc(-n3cc(COc4ccc5ccc(=O)oc5c4)nn3)cc2)cc1,IC50,[3],0.38 µg/mL
CC1=C(C(=O)Nc2ccc(C)cc2)C(c2ccc(OCc3cn(Cc4ccccc4)nn3)cc2)n2ncnc2N1 (stereo not drawn),IC50,[1],1840 nM
CC1=C(C(=O)Nc2ccccc2C)C(c2ccc(OCc3cn(Cc4ccccc4)nn3)cc2)n2c(nc3ccccc32)N1 (stereo not drawn),IC50,[1],1530 nM
Cc1cc(=O)oc2cc(OCc3cn(-c4ccc(S(=O)(=O)N5CCOCC5)cc4)nn3)c(Cl)cc12,IC50,[2],50400 nM
Cc1cc(C)nc(NS(=O)(=O)c2ccc(-n3cc(COc4cc5oc(=O)cc(C)c5cc4Cl)nn3)cc2)n1,IC50,[2],18100 nM
CC1=C(C(=O)Nc2ccccc2)C(c2ccc(OCc3cn(Cc4ccccc4)nn3)cc2)n2c(nc3ccccc32)N1 (stereo not drawn),IC50,[1],1660 nM
C=C[C@H]1CN2CC[C@H]1C[C@H]2[C@H](O)c1ccnc2ccc(OC)cc12 [QUININE],IC50,[1],83 nM
same,IC50,[3],0.268 µg/mL
CCCCc1nc(C)c2ccc(-c3cn(CCOC(=O)CCC(=O)O[C@@H]4O[C@@H]5O[C@@]6(C)CC[C@H]7[C@H](C)CC[C@@H]([C@H]4C)[C@@]57OO6)nn3)cc2c1CCCC,EC50,[5],10 nM
same,EC50,[6],4.2 nM
same,EC50,[7],9.2 nM
Br.O=[N+]([O-])c1ccc(Cn2cc(-c3ccccc3C[P+](c3ccccc3)(c3ccccc3)c3ccccc3)nn2)cc1,CC50,[8],> 100 µg/mL
same,IC50,[9],> 100 µg/mL
Cc1cc(C)nc(NS(=O)(=O)c2ccc(-n3cc(COc4cc(=O)oc5ccccc45)nn3)cc2)n1,IC50,[2],> 79400 nM
CC1=C(C(=O)Nc2ccccc2C)C(c2ccc(OCc3cn(Cc4ccccc4)nn3)cc2)n2ncnc2N1 (stereo not drawn),IC50,[1],1860 nM
CC1=C(C(=O)Nc2ccccc2)C(c2ccc(OCc3cn(Cc4ccccc4)nn3)cc2)n2ncnc2N1 (stereo not drawn),IC50,[1],3120 nM
COc1ccc(N2C(=O)[C@@H](Oc3ccccc3)[C@H]2c2ccc(OCc3cn(Cc4ccccc4)nn3)cc2)cc1OC,IC50,[4],5140 nM
O=C(Cn1cc(CSc2ccc(Br)cc2)nn1)OCc1ccc([N+](=O)[O-])cc1,IC50,[1],184 nM
Cc1ccccc1COc1ccc(-n2cc(COc3cc(=O)oc4ccccc34)nn2)cc1,IC50,[3],0.53 µg/mL
